Here are results for 61 molecules from patent publication US10633389B2, “CARM1 inhibitors and uses thereof” (Epizyme, Inc., priority 2013, dated 2020).

Each structure is given as a SMILES string.

For this assay, the system named is asymmetric di-methyl PABP1 in RKO cells. The assay is described as follows: RKO methylation assay, In Cell Western (ICW) for asymmetric di-methyl PABP1. Particulars: Homo sapiens, RKO, Cellular potencies, ICW PABP1me2a. Format: cell-based. A digest of the protocol:
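In-cell Western on fixed RKO cells after 48 h compound exposure: anti-asymmetric di-methyl PABP1 signal at 800 nm over DRAQ5 DNA signal at 700 nm. Percent inhibition set between DMSO wells and wells with 20 μM reference compound; IC50 curves fitted in triplicate.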

Usually IC50 stands for the concentration that gives 50% inhibition. Low values mean inhibition by little substance, high ones a need for much substance. The molecule `CNCC(O)COc1cccc(-c2nc(N[C@@H]3CCOC3)c(C)c(C3=CC(C)(C)NC(C)(C)C3)n2)c1` (stereo partly shown) [Example 415-1a] returned a half-inhibitory concentration (IC50) of 10 to 20 µM.

In turn, `CNCC(O)COc1cc(Cl)cc(-c2nc(NC3CCOCC3)c(C)c(-c3c(C)noc3C)n2)c1` (stereo not shown) [Example 47-1a] came in with an IC50 of less than 5 µM. As for `CNCC(O)COc1cccc(-c2nc(NCC3CCCN(CC(F)F)C3)c(C)c(-c3c(C)noc3C)n2)c1` (stereo not shown) [Example 193-1a], the concentration for half-maximal inhibition (IC50) is less than 5 µM.

As to `CNC[C@H](O)COc1ccc(Cl)c(-c2nc(-c3c(C)noc3C)c(C)c(N3Cc4cc(F)cnc4C3)n2)c1` [Example 86-3], the concentration for half-maximal inhibition (IC50) was less than 5 µM.

In turn, `CNCC(O)COc1cccc(-c2nc(NC3CCOCC3)c(C)c(-c3c(C)noc3C)n2)c1` (stereo not shown) [Example 6-1a] had an IC50 of less than 5 µM. `CNC[C@@H](O)COc1ccc(Cl)c(-c2nc(NC3CCN(C(=O)OC)CC3)c(C)c(-c3c(C)noc3C)n2)c1` [Example 104-3] returned an IC50 of less than 5 µM. `CCOC(=O)N1CCC(Nc2nc(-c3cc(OC[C@H](O)CNC)ccc3Cl)nc(-c3c(C)noc3C)c2C)CC1` [Example 88-3] displayed a 50% inhibitory concentration (IC50) of less than 5 µM. To `CNCC(O)COc1ccc(Cl)c(-c2nc(NCC3CCOCC3)c(C)c(-c3c(C)noc3C)n2)c1` (stereo not shown) [Example 9-3] belongs less than 5 µM; to `CNC[C@@H](O)COc1ccc(Cl)c(-c2nc(N[C@@H]3C[C@@H](C)O[C@@H](C)C3)c(C)c(-c3c(C)noc3C)n2)c1` [Example 182-3], less than 5 µM. For the molecule `CNC[C@@H](O)COc1ccc(Cl)c(-c2nc(NC[C@@H]3CCOC3)c(C)c(-c3c(C)noc3C)n2)c1` [Example 228-3], the half-inhibitory concentration (IC50) is less than 5 µM.

Molecule `CNCC(O)COc1cccc(-c2nc(N[C@@H]3CCOC3)c(C)c(N3CC4CN(S(C)(=O)=O)CC4C3)n2)c1` (stereo partly shown) [Example 11-3] came in with a 50% inhibitory concentration (IC50) of 5 to 10 µM. For `CNCC(O)COc1cccc(-c2nc(N3CCOCC3)c(F)c(N(C)C3CCOCC3)n2)c1` (stereo not shown) [Example 500-1a], the IC50 is less than 5 µM. `CNC[C@@H](O)COc1ccc(Cl)c(-c2nc(NC[C@H]3CCOC3)c(C)c(-c3c(C)noc3C)n2)c1` [Example 233-3]: the IC50 was less than 5 µM.

Consider `CNCC(O)COc1cccc(-c2nc(N[C@@H]3CCOC3)c(C)c(N3CCN(CC(F)F)[C@H](C)C3)n2)c1` (stereo partly shown) [Example 471-1a], for which the 50% inhibitory concentration (IC50) was less than 5 µM. Regarding `CCOC(=O)N1CCCC(CNc2nc(-c3cccc(OCC(O)CNC)c3)nc(-c3c(C)noc3C)c2C)C1` (stereo not shown) [Example 194-1a], the IC50 is less than 5 µM.

`CCOC(=O)N1CCOC[C@H]1CNc1nc(-c2cc(OC[C@@H](O)CNC)ccc2Cl)nc(-c2c(C)noc2C)c1C` [Example 24-3] came in with an IC50 of less than 5 µM. `CNC[C@@H](O)COc1ccc(Cl)c(-c2nc(NC[C@H]3CCCO3)c(C)c(-c3c(C)noc3C)n2)c1` [Example 130-3]: the IC50 is less than 5 µM. In turn, `CNCC(O)COc1cccc(-c2nc(-c3c(C)noc3C)c(C)c(N3CCC4(CC3)CN(C3CC3)C4)n2)c1` (stereo not shown) [Example 294-1a] registered a 50% inhibitory concentration (IC50) of less than 5 µM. For `CNCC(O)COc1cccc(-c2nc(N3CC4CCC(C3)O4)cc(N(C)C3CCOCC3)n2)c1` (stereo not shown) [Example 566-1a], the half-inhibitory concentration (IC50) lay in the range of 10 to 20 µM.

Turning to `CCOC(=O)N1CCCC(Nc2nc(-c3cccc(OCC(O)CNC)c3)nc(-c3c(C)noc3C)c2C)C1` (stereo not shown) [Example 190-1a], the half-maximal inhibitory concentration (IC50) is less than 5 µM. Molecule `CNC[C@@H](O)COc1ccc(C(F)(F)F)c(-c2nc(-c3c(C)noc3C)c(C)c(N3Cc4cncnc4C3)n2)c1` [Example 247-3] gave a 50% inhibitory concentration (IC50) of less than 5 µM. To `CCOC(=O)N1CC[C@H](Nc2nc(-c3cc(OC[C@H](O)CNC)ccc3Cl)nc(-c3c(C)noc3C)c2C)C1` [Example 150-3] belongs less than 5 µM. As to `CNCC(O)COc1cccc(-c2nc(-c3c(C)noc3C)c(C)c(N3CCN4C(=O)OC[C@@H]4C3)n2)c1` (stereo partly shown) [Example 110-1a], the IC50 lay in the range of 5 to 10 µM. Consider `CNCC(O)COc1cccc(-c2nc(N[C@@H]3C[C@H]4CC[C@@H](C3)N4C(=O)OC)c(C)c(-c3c(C)noc3C)n2)c1` (stereo partly shown) [Example 265-1a], for which the concentration for half-maximal inhibition (IC50) was less than 5 µM. Consider `CNC[C@@H](O)COc1ccc(Cl)c(-c2nc(-c3c(C)noc3C)c(C)c(N3C[C@H]4COC[C@H]4C3)n2)c1` [Example 186-3], for which the concentration for half-maximal inhibition (IC50) is less than 5 µM. The molecule `CNC[C@@H](O)COc1ccc(Cl)c(-c2nc(N[C@@H]3CCO[C@H](C)C3)c(Cl)c(-c3c(C)noc3C)n2)c1` [Example 155-3] displayed an IC50 of less than 5 µM.

`CNC[C@@H](O)COc1ccc(Cl)c(-c2nc(-c3c(C)noc3C)c(C)c(N3CCc4nc(C)sc4C3)n2)c1` [Example 141-3] had an IC50 of less than 5 µM. For `CNCC(O)COc1cccc(-c2nc(NC3CCOC3)c(C)c(N3CC(N)CC(Cl)C3)n2)c1` (stereo not shown) [Example 442-1a], the IC50 lay within 10 to 20 µM. In the case of `CNCC(O)COc1cccc(-c2nc(NC3CCOCC3)cc(-c3cnn(CC(C)C)c3)n2)c1` (stereo not shown) [Example 51-1], the concentration for half-maximal inhibition (IC50) was 10 to 20 µM. In turn, `CNC[C@H](O)COc1cccc(-c2nc(NC3CCOCC3)cc(-c3c(C)noc3C)n2)c1` [Example 17-1a] yielded a concentration for half-maximal inhibition (IC50) of less than 5 µM. Turning to `CCOC(=O)N1CCCCC1CNc1nc(-c2cc(OC[C@@H](O)CNC)ccc2Cl)nc(-c2c(C)noc2C)c1C` (stereo partly shown) [Example 27-3], the IC50 is less than 5 µM.

Turning to `CNCC(O)COc1cccc(-c2nc(N[C@@H]3CCOC3)c(C)c(N3CCN(C)[C@H](C)C3)n2)c1` (stereo partly shown) [Example 463-1a], the IC50 is less than 5 µM. With `CNCC(O)COc1cccc(-c2nc(NCC3CCN(CC(F)F)CC3)c(C)c(-c3c(C)noc3C)n2)c1` (stereo not shown) [Example 205-1a], the IC50 is less than 5 µM. As for `Cc1noc(C)c1-c1cc(NC2CCOCC2)nc(-c2cccc(OC[C@@H](O)CN)c2)n1` [Example 15-1a], the IC50 lay in the range of 10 to 20 µM. The molecule `CNCC(O)COc1cccc(-c2nc(-c3c(C)noc3C)cc(N3CCN(C(C)=O)C[C@H]3C)n2)c1` (stereo partly shown) [Example 39-1a] came in with a 50% inhibitory concentration (IC50) of 5 to 10 µM. For the molecule `CNCC(O)COc1cc(Cl)cc(-c2nc(NC3CCOCC3)cc(-c3c(C)noc3C)n2)c1` (stereo not shown) [Example 7-1a], the half-inhibitory concentration (IC50) fell in the range of 10 to 20 µM. On to `CCS(=O)(=O)N1CC2(CCN(c3nc(-c4cccc(OCC(O)CNC)c4)nc(-c4c(C)noc4C)c3C)CC2)C1` (stereo not shown) [Example 253-1a], for which the half-maximal inhibitory concentration (IC50) was less than 5 µM. In turn, `CNCC(O)COc1cccc(-c2nc(NC3CCC3)c(C)c(-c3c(C)noc3C)n2)c1` (stereo not shown) [Example 292-1a] gave a half-inhibitory concentration (IC50) of less than 5 µM. The molecule `CNCC(O)COc1ccc(Cl)c(-c2nc(NC3CC4(C3)CN(C(=O)OC)C4)c(C)c(-c3c(C)noc3C)n2)c1` (stereo not shown) [Example 45-3] showed an IC50 of less than 5 µM.

Molecule `CNCC(O)COc1ccc(Cl)c(-c2nc(NCC3CCCCO3)c(C)c(-c3c(C)noc3C)n2)c1` (stereo not shown) [Example 31-3] displayed a 50% inhibitory concentration (IC50) of less than 5 µM. The molecule `CNCC(O)COc1cccc(-c2nc(N[C@@H]3CCOC3)c(C)c(N3CCN(CC(=O)N(C)C)CC3)n2)c1` (stereo partly shown) [Example 391-1a] registered a half-maximal inhibitory concentration (IC50) of 10 to 20 µM. With `CNC[C@@H](O)COc1ccc(Cl)c(-c2nc(NC3CC(F)C3)c(C)c(-c3c(C)noc3C)n2)c1` (stereo partly shown) [Example 188-3], the concentration for half-maximal inhibition (IC50) is less than 5 µM. In the case of `CNC[C@@H](O)COc1ccc(Cl)c(-c2nc(-c3c(C)noc3C)c(C)c(N3CC4(CCN(C(=O)OC(C)C)CC4)C3)n2)c1` [Example 284-3], the IC50 was less than 5 µM. Turning to `CNC[C@@H](O)COc1ccc(Cl)c(-c2nc(N[C@H]3C[C@@H](C)O[C@@H](C)C3)c(Cl)c(-c3c(C)noc3C)n2)c1` [Example 173-3], the 50% inhibitory concentration (IC50) was less than 5 µM.

With `CNCC(O)COc1cc(Cl)cc(-c2nc(-c3ccn4cnnc4c3)c(C)c(N(C)C3CCOCC3)n2)c1` (stereo not shown) [Example 70-1], the IC50 was 10 to 20 µM. Take `CNCC(O)COc1cccc(-c2nc(N[C@H]3CC[C@@H](O)CC3)cc(-c3c(C)noc3C)n2)c1` (stereo partly shown) [Example 33-1a]: the half-maximal inhibitory concentration (IC50) lay within 5 to 10 µM.

As to `CNC[C@H](O)COc1ccc(Cl)c(-c2nc(-c3c(C)noc3C)c(C)c(N3CC4(CCN(C5CC5)CC4)C3)n2)c1` [Example 55-3], the IC50 is less than 5 µM. The value for `CNC[C@H](O)COc1ccc(Cl)c(-c2nc(-c3c(C)noc3C)cc(N3CC4(CCN(C5CC5)CC4)C3)n2)c1` [Example 69-3] was less than 5 µM; that for `CNCC(O)COc1cc(Cl)cc(-c2nc(-c3ccncc3)c(C)c(N(C)[C@H]3CCOC3)n2)c1` (stereo partly shown) [Example 334-1a] was 10 to 20 µM. `CNCC(O)COc1ccc(Cl)c(-c2nc(NC3CCN(C(=O)OC)CC3)c(C)c(-c3c(C)noc3C)n2)c1` (stereo not shown) [Example 270-1a] registered an IC50 of less than 5 µM.

The molecule `CNCC(O)COc1cccc(-c2nc(-c3c(C)noc3C)c(C)c(N3CCO[C@@H](CN(C)S(C)(=O)=O)C3)n2)c1` (stereo partly shown) [Example 150-1a] came in with a concentration for half-maximal inhibition (IC50) of 5 to 10 µM. To `CNCC(O)COc1cccc(-c2nc(-c3c(C)noc3C)cc(N3CCN(C(=O)OC)CC3)n2)c1` (stereo not shown) [Example 81-1a] belongs less than 5 µM. To `CNCC(O)COc1cccc(-c2nc(-c3cnc4ncccn34)cc(N(C)C3CCOCC3)n2)c1` (stereo not shown) [Example 489-1a] belongs less than 5 µM.

On to `CNCC(O)COc1cccc(-c2nc(NCC3(N4CCC4)CCOCC3)c(C)c(-c3c(C)noc3C)n2)c1` (stereo not shown) [Example 301-1a], for which the IC50 fell in the range of 5 to 10 µM.

Take `CNCC(O)COc1cccc(-c2nc(N[C@@H]3CCOC3)c(C)c(-c3cnc(OC)nc3)n2)c1` (stereo partly shown) [Example 356-1a]: the IC50 lay within 10 to 20 µM.

For the molecule `CNC[C@@H](O)COc1ccc(Cl)c(-c2nc(-c3c(C)noc3C)c(C)c(N3CC4(CCCCO4)C3)n2)c1` [Example 290-3], the half-maximal inhibitory concentration (IC50) was less than 5 µM. `CNCC(O)COc1cccc(-c2nc(NC3CCCN(C(=O)OC)C3)c(C)c(-c3c(C)noc3C)n2)c1` (stereo not shown) [Example 201-1a] showed an IC50 of less than 5 µM. To `CNC[C@@H](O)COc1ccc(Cl)c(-c2nc(-c3c(C)noc3C)c(C)c(N3Cc4cn[nH]c4C3)n2)c1` [Example 231-3] belongs less than 5 µM. `CNCC(O)COc1cccc(-c2nc(NCC3CCN(C(=O)C4CC4)CC3)c(C)c(-c3c(C)noc3C)n2)c1` (stereo not shown) [Example 249-1a] yielded an IC50 of less than 5 µM. `CNC[C@@H](O)COc1ccc(Cl)c(-c2nc(-c3c(C)noc3C)c(C)c(N3Cc4cnn(C)c4C3)n2)c1` [Example 140-3]: the IC50 is less than 5 µM.

`CNC[C@@H](O)COc1ccc(Cl)c(-c2nc(-c3c(C)noc3C)c(C)c(N3CCC3)n2)c1` [Example 238-3] had a half-maximal inhibitory concentration (IC50) of less than 5 µM.
